Experimental data: US10815276B2, “Cell penetrating peptides and methods of making and using thereof” (Entrada Therapeutics, Inc., priority 2014, dated 2020)
Where “and” joins values, the source holds several entries; their conditions need not be identical. Equal entries are not always repeated. Where two headings read alike, the source gives them in different places. Starred links: 1 amine or outer side, 2 acyl side, 3 side chain; linkers in the order of their positions; H or OH if unused. Positions of bridges follow the written chain, without caps; N, C: chain ends. Non-standard residues stand in square brackets, D forms with d. Residues, ends and D or L forms follow the SMILES beside them. *: point of attachment. RhodamineB = CCN(CC)c1ccc2c(-c3ccccc3C(=O)*)c3ccc(=[N+](CC)CC)cc-3oc2c1; Trimesoyl = O=C(c1cc(C(=O)[*:2])cc(C(=O)[*:3])c1)[*:1]; 2Nal = N[C@@H](Cc1ccc2ccccc2c1)C(=O)O; Pip = O=C(O)[C@@H]1CCCCN1; Dap = NC[C@H](N)C(=O)O; Sar = CNCC(=O)O

Key:
[1] = tested on: HEK293, MCF-7, A549, H1650, and H1299; test: MTT cytotoxicity assay; assay type: cell-based, human
Method: MTT assays were performed to evaluate cyclic peptide's cytotoxicity against several mammalian cell lines (Mosmann, T. J. Immunol. Methods, 1983, 65, 55-63). One hundred μL of MCF-7, HEK293, H1299, H1650, A549 (1×10^5 cells/mL) cells were placed in each well of a 96-well culture plate and allowed to grow overnight. Varying concentrations of the peptide (5 or 50 μM) were added to the each well and the cells were incubated at 37° C. with 5% CO2 for 24 to 72 h. Ten μL of MTT stock solution was added into each well. Addition of 10 μL of the solution to the growth medium (no cell) was used as a negative control. The plate was incubated at 37° C. for 4 h. Then 100 μL of SDS-HCl solubilizing buffer was added into each well, and the resulting solution was mixed thoroughly. The plate was incubated at 37° C. for another 4 h. The absorbance of the formazan product was measured at 570 nm using a Molecular Devices Spectramax M5 plate reader. Each experiment was performed in triplicates and the cells without any peptide added were treated as control.

[2] = tested on: SUV2 (vesicles that mimic the negatively charged endosomal membrane of mammalian cells); test: Fluorescence polarization membrane binding, SUV2
Source text: (§1) Also discussed herein are the CPP sequences in Table 16. All uptake/delivery efficiencies are in Table 17 are relative to that of cFΦR4 (290-1F, 100%). SUV1 are small unilamellar vesicles that mimic the neutral outer membrane of mammalian cells [45% phosphatidylcholine (PC), 20% phosphatidylethanolamine (PE), 20% sphingomyelin (SM), and 15% cholesterol (CHO)]. SUV2 are small unilamellar vesicles that mimic the negatively charged endosomal membrane of mammalian cells [50% PC, 20% PE, 10% phosphatidylinositol (PI), and 20% bis(monoacylglycerol)phosphate].
(§2) Measurements were carried out fluorescence polarization using FITC-labeled cyclic peptides against increasing concentrations of vesicles. Experiments were performed at pH 7.4 and 5.5 (pH inside late endosomes).

[3] = tested on: SUV1 (vesicles that mimic the neutral outer membrane of mammalian cells); test: Fluorescence polarization membrane binding, SUV1
Source text: as §1, §2

HeLa cells [4] = test: Cytoplasmic delivery of pCAP-containing peptides, flow cytometry; details: pCAP-containing peptide as cargo
[5] = tested on: cell type (e.g., HeLa cells); test: Cellular uptake efficiency of cyclic CPPs; assay type: cell-based; details: relative to cFΦR4 (290-1F, 100%)
Method: In particular embodiments, uptake efficiency is determined by comparing (i) the amount of a cyclic cell-penetrating peptide of the invention internalized by a cell type (e.g., HeLa cells) to (ii) the amount of c(FΦRRRRQ) (290-1F) internalized by the same cell type. To measure cellular uptake efficiency, the cell type may be incubated in the presence of a cell-penetrating peptide of the invention for a specified period of time (e.g., 30 minutes, 1 hour, 2 hours, etc.) after which the amount of the cell-penetrating peptide internalized by the cell is quantified. Separately, the same concentration of c(FΦRRRRQ) (290-1F) is incubated in the presence of the cell type over the same period of time, and the amount of the second peptide internalized by the cell is quantified. Quantification can be achieved by fluorescently labeling the cell-penetrating peptide (e.g., with a FTIC dye) and measuring the fluorescence intensity using techniques well-known in the art.
as §1

mammalian cells = details: Qian et al. 2013; cited from earlier work
HeLa cells [6] = test: Effect on endocytosis of dextran^Alexa488, flow cytometry; assay type: cell-based, human; details: 1 μM cFΦR4, 100 μM dextran^Alexa488, 30 min
Method: HeLa cells were treated with clear DMEM containing no supplement, 1 μM cFΦR4 only, 100 μM dextran^Alexa488 only, or both 1 μM cFΦR4 and 100 μM dextran^Alexa488. MFI, mean fluorescence intensity.
Following adherence, cells were treated with clear DMEM containing no supplement, 1 μM cFΦR4 peptide, 100 μM dextran^Alexa488 (Life Technologies, D-22910), or both 1 μM cyclic peptide and 100 μM dextran^Alexa488 for 30 min under standard cell culture conditions. The cells were washed with DPBS twice, removed from the plate with 0.25% trypsin, diluted into clear DMEM containing 10% FBS, pelleted at 300 g for 5 min, washed once with DPBS and resuspended in 200 μL of DPBS. Whole-cell dextran uptake was analyzed on a BD Accuri C6 flow cytometer using the manufacturer FL1 laser and filter set.

HeLa cells [7] = test: FACS uptake of FITC-labeled peptides; assay type: cell-based, human; details: 5 μM, 2 h
[8] = Serum stability test (25% human serum); assay type: in vitro ADME; details: 37° C.
Method: The stability tests were carried by modifying a previously reported procedure (Nguyen, L T et al. […] At various time points (0-6 h), 200-μL aliquots were withdrawn and mixed with 50 μl of 15% trichloroacetic acid and incubated at 4° C. overnight. The final mixture was centrifuged at 15,000 rpm for 10 min in a microcentrifuge, and the supernatant was analyzed by reversed-phase HPLC equipped with a C18 column (Waters). The amount of remaining peptide (%) was determined by integrating the area underneath the peptide peak (monitored at 214 nm) and compared with that of the control reaction (no serum).

Aqueous solubility = assay type: physicochemical
Pin1 [9] = target: T1, Pin1 (Homo sapiens, UniProt Q13526, S16A/Y23A); test: Fluorescence anisotropy binding to Pin1
T1 construct: The full-length human S16A/Y23A mutant Pin1 was expressed and purified from E. coli; made in house
T1 sequence (Q13526 whole entry S16A/Y23A): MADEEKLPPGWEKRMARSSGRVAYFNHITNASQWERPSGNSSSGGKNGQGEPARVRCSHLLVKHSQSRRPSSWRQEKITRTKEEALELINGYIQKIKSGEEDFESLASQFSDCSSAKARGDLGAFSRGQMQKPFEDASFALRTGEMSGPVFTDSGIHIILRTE
Method: The gene coding for the catalytic domain of PTP1B (amino acids 1-321) was amplified by the polymerase chain reaction using PTP1B cDNA as template and oligonucleotides 5′-[…]-3′ and 5′-[…]-3′ as primers. […] Expression and purification of the ybbR-tagged PTP1B were carried out as previously described (Ren, L et al. Biochemistry 2011, 50, 2339-2356). […] The reaction mixture was passed through a G-25 fast-desalting column equilibrated in 30 mM HEPES, pH 7.4, 150 mM NaCl to remove any free dye molecules. The full-length human S16A/Y23A mutant Pin1 was expressed and purified from E. coli as previously described (Liu, T et al. J. Med. Chem. 2010, 53, 2494-2501).
FA experiments were carried out by incubating 100 nM FITC-labeled peptide with varying concentrations of protein in 20 mM HEPES (pH 7.4), 150 mM NaCl, 2 mM magnesium acetate, and 0.1% bovine serum albumin (BSA) for 2 h at room temperature. The FA values were measured on a Molecular Devices Spectramax M5 plate reader, with excitation and emission wavelengths at 485 and 525 nm, respectively. Equilibrium dissociation constants (KD) were determined by plotting the FA values as a function of protein concentration and fitting the curve to the following equation:
[formula] where Y is the FA value at a given protein concentration x, L is the peptide concentration, Qb/Qf is the correction factor for fluorophore-protein interaction, Amax is the maximum FA value when all of the peptides are bound to protein, while Amin is the minimum FA value when all of the peptides are free. FA competition assay was performed by incubating 100 nM FITC-labeled Pin1 inhibitor 5 with 1 μM Pin1, followed by the addition of 0-5 μM unlabeled inhibitor. The FA values were measured similarly on a pate reader. IC50 values were obtained by plotting the FA values against the competitor concentration and curve fitting using the four-parameter dose-response inhibition equation (Prism 6, GraphPad).

Pin1 [10] = target: T1, Pin1; test: Pin1 binding by FA (FITC-labeled peptides); details: FITC-labeled peptide, FA; read-out: KD
PTP1B = target: T2, PTP1B (Homo sapiens, UniProt P18031); test: PTP inhibition assay (pNPP); assay type: biochemical; details: pNPP 0-24 mM; read-out: K1 (competitive inhibition constant)
T2 construct: The gene coding for the catalytic domain of PTP1B (amino acids 1-321) was amplified; made in house; host or cells: prokaryotic vector pET-22b(+)-ybbR
T2 sequence (P18031 1-321): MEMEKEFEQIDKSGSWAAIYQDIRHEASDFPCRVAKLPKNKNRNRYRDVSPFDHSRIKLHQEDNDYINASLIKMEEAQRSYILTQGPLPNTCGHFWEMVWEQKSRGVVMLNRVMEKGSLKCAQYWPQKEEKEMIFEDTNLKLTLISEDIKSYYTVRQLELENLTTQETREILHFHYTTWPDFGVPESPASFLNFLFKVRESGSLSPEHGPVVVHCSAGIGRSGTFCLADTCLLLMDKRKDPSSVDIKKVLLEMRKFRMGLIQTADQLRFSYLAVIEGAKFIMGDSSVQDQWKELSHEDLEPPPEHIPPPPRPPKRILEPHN
Method: PTP assays were performed in a quartz microcuvette (total volume 150 μL). The reaction mixture contains 100 mM Tris-HCl, pH 7.4, 50 mM NaCl, 2 mM EDTA, 1 mM TCEP, 0-1 μM of PTP inhibitor, and 500 μM para-nitrophenyl phosphate (pNPP). The enzymatic reaction was initiated by the addition of PTP (final concentration 15-75 nM) and monitored continuously at 405 nm on a UV-VIS spectrophotometer. Initial rates were calculated from the reaction progress curves (typically <60 s). The half-maximal inhibition constant (IC50) was defined as the concentration of an inhibitor that reduced the enzyme activity to 50% and was obtained by plotting the rates (V) against the inhibitor concentration [I] and fitting the data against the equation
[formula] where V0 is the enzymatic reaction rate in the absence of inhibitor. […] The reaction rate (V) was plotted against the pNPP concentration ([S]) and fitted against the equation
[formula] to obtain the Michaelis constant K. The Ki value was obtained by plotting the K values against the inhibitor concentration [I] and fitted to equation
[formula] where K0 is the Michaelis constant in the absence of inhibitor ([I]=0).

pKa of CAP fluorophore = assay type: physicochemical; details: deprotonated state fluorescent

With `N=C(N)NCCC[C@@H]1NC(=O)[C@H](CCCNC(=N)N)NC(=O)[C@H](CCCNC(=N)N)NC(=O)[C@H](Cc2ccc3ccccc3c2)NC(=O)[C@H](Cc2ccccc2)NC(=O)[C@H](CCC(N)=O)NC(=O)[C@H](CCCNC(=N)N)NC1=O` [cFΦR4, cyclo(FΦRRRRQ)] (cyclo(F[2Nal]RRRRQ)) the “Growth inhibition after 72 h” value ([1]; 50 μM) was “up to 20%”, the “Growth inhibition after 24 or 48 h” value ([1]; up to 50 μM) was “no significant growth inhibition” and the Kd ([2]; pH 5.5, read-out: Membrane Binding KD (mM) SUV2 pH 5.5) was 0.63 mM. It also gave a Kd ([2]; pH 7.4, read-out: Membrane Binding KD (mM) SUV2 pH 7.4) of 0.66 mM, a Kd ([3]; pH 5.5, read-out: Membrane Binding KD (mM) SUV1 pH 5.5) of 1.1 mM and a Kd ([3]; pH 7.4, read-out: Membrane Binding KD (mM) SUV1 pH 7.4) of 4 mM. The “Delivery efficiency higher than R9, Antp, and Tat” value (HeLa cells [4]) was 4-12 fold and 3.7-12 fold, the “Uptake Efficiency (%)” value [5] was 100% and the “Efficiency of entering cytoplasm and nucleus higher than nonaarginine (R9)” value (mammalian cells) was 2-5 fold. The “Increase in internalization of dextran^Alexa488” value (HeLa cells [6]) was 15%.

For “fluorescein isothiocyanate [FITC, reference compound]”, the “Mean fluorescence intensity (MFI), total intracellular FITC fluorescence” value (HeLa cells [7]) was 1200 arbitrary units (AU).

`N=C(N)NCCC[C@H](NC(=O)[C@H](CCCNC(=N)N)NC(=O)[C@H](CCCNC(=N)N)NC(=O)[C@H](CCCNC(=N)N)NC(=O)[C@H](CCCNC(=N)N)NC(=O)[C@H](CCCNC(=N)N)NC(=O)[C@H](CCCNC(=N)N)NC(=O)[C@H](CCCNC(=N)N)NC(=O)[C@@H](N)CCCNC(=N)N)C(N)=O` [Peptide R9] showed a half-life at 50 μM [8] of ~30 min.

With “cyclo(FΦRRRRQ)-FFFF-K(Rho) (cyclo(F[2Nal]RRRRQFFFFK(RhodamineB)); not fully specified (C-terminus, bridges); printed as cyclo(FΦRRRRQ)-FFFF-K(Rho)) [cFΦR4-F4]” the Aqueous solubility (Aqueous solubility) was “poor”.

For `C[C@@H]1NC(=O)[C@H](CCCNC(=N)N)NC(=O)[C@H](Cc2ccc3ccccc3c2)NC(=O)[C@@H]2CCCCN2C(=O)[C@@H]([C@H](C)O)NC(=O)CN(C)C(=O)[C@@H](C)NC(=O)c2cc3cc(c2)C(=O)NC[C@H](NC(=O)[C@@H](C)NC1=O)C(=O)N[C@@H](Cc1ccccc1)C(=O)N[C@@H](Cc1ccc2ccccc2c1)C(=O)N[C@@H](CCCNC(=N)N)C(=O)N[C@@H](CCCNC(=N)N)C(=O)N[C@@H](CCCNC(=N)N)C(=O)N[C@@H](CCCNC(=N)N)C(=O)N[C@H](C(=O)N[C@@H](CCCCN)C(N)=O)CNC3=O` [Peptide 2, bicyclo[Tm-(D-Ala-Sar-D-Thr-Pip-Nal-Arg-Ala-D-Ala)-Dap-(Phe-Nal-Arg-Arg-Arg-Arg-Dap)]-Lys] ([dA][Sar][dT][Pip][2Nal]RA[dA][Dap]F[2Nal]RRRR[Dap]K-NH2; linker N-9-16 via Trimesoyl), the “Reduction of potency vs inhibitor 7” value (Pin1 [9]) was ~10 fold, the Kd (Pin1 [10]) was 0.62 µM and the Ki (PTP1B) was 0.054 µM.

For `NC(Cc1cc(=O)oc2cc(O)ccc12)C(=O)O` (centres unmarked) [CAP, coumaryl aminopropionic acid], the pKa (pKa of CAP fluorophore) was 7.8.
